According to patent publication US8168667B2 (Galapagos NV, priority 2006, dated 2012):
Like-named read-outs stand apart in the source and are kept apart here.

Target: T1, human androgen receptor (hAR) (Homo sapiens, UniProt P10275)
T1 sequence (P10275 1-920): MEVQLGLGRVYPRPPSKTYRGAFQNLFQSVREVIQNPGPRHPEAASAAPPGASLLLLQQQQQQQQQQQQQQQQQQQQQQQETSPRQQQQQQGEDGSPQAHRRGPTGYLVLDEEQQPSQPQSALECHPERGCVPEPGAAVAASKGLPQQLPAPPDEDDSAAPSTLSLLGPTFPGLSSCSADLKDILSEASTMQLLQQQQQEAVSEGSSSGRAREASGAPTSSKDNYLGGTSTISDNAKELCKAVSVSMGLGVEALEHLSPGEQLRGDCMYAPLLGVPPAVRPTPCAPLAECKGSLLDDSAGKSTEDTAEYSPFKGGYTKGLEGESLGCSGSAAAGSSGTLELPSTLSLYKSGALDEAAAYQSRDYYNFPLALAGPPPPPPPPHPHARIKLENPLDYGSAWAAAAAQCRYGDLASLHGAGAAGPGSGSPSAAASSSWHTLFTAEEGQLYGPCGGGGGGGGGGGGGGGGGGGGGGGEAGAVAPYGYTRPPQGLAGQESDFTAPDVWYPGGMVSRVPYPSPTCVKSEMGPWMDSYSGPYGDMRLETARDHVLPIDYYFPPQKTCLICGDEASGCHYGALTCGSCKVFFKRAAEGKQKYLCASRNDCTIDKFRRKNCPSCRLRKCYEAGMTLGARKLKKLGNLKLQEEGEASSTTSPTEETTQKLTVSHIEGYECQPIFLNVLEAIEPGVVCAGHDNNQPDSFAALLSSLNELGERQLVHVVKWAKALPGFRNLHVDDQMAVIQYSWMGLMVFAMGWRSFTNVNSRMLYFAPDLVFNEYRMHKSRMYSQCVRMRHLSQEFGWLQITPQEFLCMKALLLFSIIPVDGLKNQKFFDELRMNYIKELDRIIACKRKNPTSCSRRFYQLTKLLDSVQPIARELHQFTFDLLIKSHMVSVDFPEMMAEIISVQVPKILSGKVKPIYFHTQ
Assay: Functional response test: hAR transactivation (luciferase reporter) in HALP2 cells
Format: cell-based
Conditions: for EC50: agonism, HALP2 cells (HeLa, hAR + ARE-luciferase), 20 hours at 37° C.
Method in brief: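 HALP2 cells are HeLa cells stably transfected with CMV-driven hAR and a probasin ARE-luciferase reporter. They were seeded 24 h ahead, then exposed to compounds for 20 hours at 37° C in phenol red-free DMEM with 5% desteroided serum. Luciferase luminescence was measured after lysis; for antagonist mode, compounds were tested against increasing DHT concentrations.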

[1] = antagonism, concentration which increases the EC50 of the DHT by a factor of 2, Schild regression, HALP2 cells

| Structure (SMILES) | KSchild (nM) potency [nM] | EC50 [nM] | KSchild (nM) potency [1] [nM] |
| --- | --- | --- | --- |
| CC1(c2ccc(O)cc2)C(=O)N(c2ccc(C#N)c(C(F)(F)F)c2)C(=O)N1CC#N (centres unmarked) [Example 237, 4-[3-(cyanomethyl)-2,5-dioxo-4-(4-hydroxyphenyl)-4-methylimidazolidin-1-yl]-2-trifluoromethylbenzonitrile] | 8 |  |  |
| CCC1(c2cc(F)c(OC)c(F)c2)C(=O)N(c2ccc(C#N)c(C(F)(F)F)c2)C(=O)N1C (centres unmarked) [Example 167, 4-[4-(3,5-difluoro-4-methoxyphenyl)-2,5-dioxo-4-ethyl-3-methylimidazolidin-1-yl]-2-trifluoromethylbenzonitrile] | 54.77 |  |  |
| CCOC(=O)CCN1C(=O)N(c2ccc(F)c(F)c2)C(=O)C1c1ccc(O)cc1 (centres unmarked) [Example 76] |  | 200 | 200 |
| CC12C(=O)N(c3ccc(C#N)c(C(F)(F)F)c3)C(=O)N1Cc1cc(O)ccc12 (centres unmarked) [Example 158, 4-[1,3-dioxo-7-hydroxy-9b-methyl-1,2,3,9b-tetrahydro-5H-imidazo[5,1-a]isoindol-2-yl]-2-trifluoromethylbenzonitrile] | 30 |  |  |
| C=CCN1C(=O)N(c2ccc([N+](=O)[O-])c(C(F)(F)F)c2)C(=O)C1c1ccc(O)cc1 (centres unmarked) [Example 13, 1-(4-nitro-3-trifluoromethylphenyl)-4-(4-hydroxyphenyl)-3-(2-propenyl)imidazolidine-2,5-dione] | 122.47 |  |  |
| CN(C)CCN1C(=O)N(c2ccc([N+](=O)[O-])c(C(F)(F)F)c2)C(=O)C1c1ccc(O)cc1 (centres unmarked) [Example 114] | 1095.45 |  |  |
| CCCN1C(=O)N(c2ccc(Cl)c(Cl)c2)C(=O)C1c1ccc(O)cc1 (centres unmarked) [Example 55] |  | 54.8 | 34.64 |
| CCC1(c2cc(F)c(O)c(F)c2)C(=O)N(c2ccc(C#N)c(C(F)(F)F)c2)C(=O)N1C (centres unmarked) [Example 174, 4-[4-(3,5-difluoro-4-hydroxyphenyl)-2,5-dioxo-4-ethyl-3-methylimidazolidin-1-yl]-2-trifluoromethylbenzonitrile] | 6.93 |  |  |
| CC1(c2ccc(O)cc2)C(=O)N(c2ccc(Cl)c(Cl)c2)C(=O)N1CCO (centres unmarked) [Example 146] |  | 30 | 30 |
| N#CCN1C(=O)N(c2ccc(F)c(Cl)c2)C(=O)C1c1ccc(O)cc1 (centres unmarked) [Example 95] |  | 632 | 632.46 |
| CCOCCCN1C(=O)N(c2ccc(F)c(C(F)(F)F)c2)C(=O)C1c1ccc(O)cc1 (centres unmarked) [Example 87] |  | 77.5 | 77.46 |
| CN1C(=O)N(c2ccc(C#N)c3ccccc23)C(=O)C1(C)c1ccc(O)cc1 (centres unmarked) [Example 31, 4-[3,4-dimethyl-2,5-dioxo-4-(4-hydroxyphenyl)imidazolidin-1-yl]naphthonitrile] | 800 |  |  |
| CC1(c2ccc(O)cc2)C(=O)N(c2ccc(C#N)c(C(F)(F)F)c2)C(=O)N1CC(N)=O (centres unmarked) [Example 231, 4-[3-[(aminocarbonyl)methyl]-2,5-dioxo-4-(4-hydroxyphenyl)-4-methylimidazolidin-1-yl]-2-trifluoromethylbenzonitrile] | 60 |  |  |
| COc1ccc(C2(CF)C(=O)N(c3ccc(Cl)c(Cl)c3)C(=O)N2C)cc1 (centres unmarked) [Example 169, 1-(3,4-dichlorophenyl)-4-fluoromethyl-4-(4-methoxyphenyl)-3-methylimidazolidine-2,5-dione] |  | 10 | 10 |
| O=C1C(c2ccc(O)cc2)N(Cc2ccc3c(c2)OCO3)C(=O)N1c1ccc(F)c(Cl)c1 (centres unmarked) [Example 103] |  | 49 | 48.99 |
| C=CCN1C(=O)N(c2ccc(C#N)c(C(F)(F)F)c2)C(=O)C1c1ccc(O)cc1 (centres unmarked) [Example 12, 4-[2,5-dioxo-4-(4-hydroxyphenyl)-3-(2-propenyl)imidazolidin-1-yl]-2-trifluoromethyl-benzonitrile] | 24.49 |  |  |
| C#CCN1C(=O)N(c2ccc(F)c(F)c2)C(=O)C1c1ccc(O)cc1 (centres unmarked) [Example 67] |  | 49 | 48.99 |
| N#CCN1C(=O)N(c2cccc(C(F)(F)F)c2)C(=O)C1c1ccc(O)cc1 (centres unmarked) [Example 96] |  | 693 | 692.82 |
| CN1C(=O)N(c2ccc(C#N)c(C(F)(F)F)c2)C(=O)C1(C)c1ccc(OCCO)cc1 (centres unmarked) [Example 343] | 60 |  |  |
| CN1C(=O)N(c2ccc(C(F)(F)F)cc2Cl)C(=O)C1(C)c1ccc(O)cc1 (centres unmarked) [Example 29, 1-(2-chloro-4-trifluoromethylphenyl)-3,4-dimethyl-4-(4-hydroxyphenyl)imidazolidine-2,5-dione] |  | 60 | 60 |
| CCOCCCN1C(=O)N(c2ccc(Cl)c(Cl)c2)C(=O)C1c1ccc(O)cc1 (centres unmarked) [Example 84] |  | 24.5 | 17.32 |
| CN1C(=O)N(c2ccc(F)c(Cl)c2)C(=O)C1c1ccc(O)cc1 (centres unmarked) [Example 49] |  | 69.3 | 42.43 |
| CC1(c2ccc(O)cc2)C(=O)N(c2ccc(C#N)c(C(F)(F)F)c2)C(=O)N1C1CC1 (centres unmarked) [Example 24.1, 4-[3-cyclopropyl-2,5-dioxo-4-(4-hydroxyphenyl)-4-methylimidazolidin-1-yl]-2-trifluoromethylbenzonitrile] | 10 |  |  |
| O=C1C(c2ccc(O)cc2)N(CCCCO)C(=O)N1c1ccc(F)c(F)c1 (centres unmarked) [Example 133] |  | 600 | 600 |
| CC1(c2ccc(O)cc2)C(=O)N(c2ccc(C#N)c(C(F)(F)F)c2)C(=O)N1CCCCO (centres unmarked) [Example 24, 4-[2,5-dioxo-3-(4-hydroxybutyl)-4-(4-hydroxyphenyl)-4-methylimidazolidin-1-yl]-2-trifluoromethylbenzonitrile] | 15 |  |  |
